Reference: paper PMC10011747, “Targeting androgen receptor and the variants by an orally bioavailable Proteolysis Targeting Chimeras compound in castration resistant prostate cancer” (eBioMedicine, 2023)
Like-named read-outs stand apart in the source and are kept apart here.

Target: T1, AR-V7 (Homo sapiens, UniProt P10275)
T1 construct: endogenous in cells; host or cells: CWR22Rv1, VCaP
T1 sequence (P10275 1-644 isoform P10275-3): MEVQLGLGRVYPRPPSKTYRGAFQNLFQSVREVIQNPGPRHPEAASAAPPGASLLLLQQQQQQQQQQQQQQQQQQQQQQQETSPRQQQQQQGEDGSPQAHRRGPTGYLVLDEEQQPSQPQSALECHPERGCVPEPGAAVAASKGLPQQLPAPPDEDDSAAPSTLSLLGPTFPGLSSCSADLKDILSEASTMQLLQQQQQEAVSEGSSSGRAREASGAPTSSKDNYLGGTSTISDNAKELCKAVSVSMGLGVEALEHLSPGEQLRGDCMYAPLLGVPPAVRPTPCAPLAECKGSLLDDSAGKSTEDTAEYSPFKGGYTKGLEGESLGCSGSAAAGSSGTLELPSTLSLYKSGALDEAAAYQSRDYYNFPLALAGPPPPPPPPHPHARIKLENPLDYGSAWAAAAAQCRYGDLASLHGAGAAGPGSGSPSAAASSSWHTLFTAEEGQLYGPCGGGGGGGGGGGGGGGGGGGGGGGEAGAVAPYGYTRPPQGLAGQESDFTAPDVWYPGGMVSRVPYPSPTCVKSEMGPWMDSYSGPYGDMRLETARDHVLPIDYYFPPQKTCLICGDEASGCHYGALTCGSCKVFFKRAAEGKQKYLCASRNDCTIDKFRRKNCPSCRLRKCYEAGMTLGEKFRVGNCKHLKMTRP
Assay: AR-V7 degradation by western blot (AR-V7 specific antibody)
Format: cell-based
Settings: for DC50: 24 h treatment; for Dmax at 20 µM: maximum degradation at 20 μM
Method: To obtain total lysates, cells were lysed in RIPA buffer (50 mM Tris–HCl pH 8.0, 150 mM NaCl, 1% NP-40, 0.5% Na-deoxycholate, 0.5% SDS plus protease inhibitors). The lysates were resolved by SDS-polyacrylamide gel electrophoresis, and the protein expression was analyzed by western blotting using primary antibodies against AR (Millipore Cat# 06-680, RRID:AB_310214), AR-V7 (RevMAb Biosciences Cat# 31-1109-00, RRID:AB_2716436), GAPDH (Cell Signaling Technology Cat# 2118, RRID:AB_561053) and Actin (Sigma–Aldrich Cat# A5441, RRID:AB_476744). pLenti4/TO/Flag-AR or pLenti4/TO/Flag-TC-AR plasmid was co-transfected with HA-ubiquitin plasmid into 293T cells. 24 h after transfection, the cells were treated with 10 μM of the PROTAC compounds for 16 h, followed by 4-h treatment of 5 μM MG132. The cells were lysed with lysis buffer (50 mM Tris–HCl pH7.5, 150 mM NaCl, 0. 5% Triton X-100, 10% glycerol, 1 mM EDTA plus protease inhibitors) containing 1 ng/mL of N-ethylmaleimide, followed by immunoprecipitation with anti-Flag M2 (Sigma–Aldrich Cat# F3165, RRID:AB_259529) antibody. The ubiquitinated AR was then detected by western blotting using anti-HA (Sigma–Aldrich Cat# H3663, RRID:AB_262051) antibody.
Fig. 1 PROTAC-based AR degraders ITRI-90, ITRI-125 and ITRI-126 reduce AR and AR-V7 proteins in prostate cancer cell lines. (a) Chemical structure of the PROTAC AR degraders. (b) Representative western blots of AR protein levels in LNCaP, CWR22Rv1 and VCaP cells treated with the PROTAC degraders for 24 h. AR was detected by N-terminal antibody which also detects C-terminal truncated AR-V(ΔLBD) in CWR22Rv1 cells. AR-V7 specific antibody was used for AR-V7 detection. 4%–12% gradient gel was used to separate different species of AR-V(ΔLBD) near 75 kDa in CWR22Rv1 cell lysates. DC50 indicating the concentration required to achieve 50% degradation, was calculated based on normalized full-length AR and AR-V7 band intensity. Dmax is the maximum degradation achieved at 20 μM compound treatment. TEXT PRINTED IN THE PICTURE: (a) ITRI-90: AR DC50 (μM) LNCaP: 2.12 ± 0.93; AR DC50 (μM) CWR22Rv1: 5.73 ± 2.28; AR DC50 (μM) VCaP: 8.67 ± 4.87; AR-V7 DC50 (μM) CWR22Rv1: 4.72 ± 2.52; AR-V7 DC50 (μM) VCaP: 0.29 ± 0.15; AR Dmax (%) LNCaP: 88; AR Dmax (%) CWR22Rv1: 98; AR Dmax (%) VCaP: 90; AR-V7 Dmax (%) CWR22Rv1: 100; AR-V7 Dmax (%) VCaP: 63 | (a) ITRI-125: AR DC50 (μM) LNCaP: 6.10 ± 4.43; AR DC50 (μM) CWR22Rv1: 6.64 ± 1.87; AR DC50 (μM) VCaP: 9.05 ± 3.75; AR-V7 DC50 (μM) CWR22Rv1: 1.89 ± 1.06; AR-V7 DC50 (μM) VCaP: 0.52 ± 0.37; AR Dmax (%) LNCaP: 71; AR Dmax (%) CWR22Rv1: 96; AR Dmax (%) VCaP: 85; AR-V7 Dmax (%) CWR22Rv1: 99; AR-V7 Dmax (%) VCaP: 67 | (a) ITRI-126: AR DC50 (μM) LNCaP: 3.41 ± 3.13; AR DC50 (μM) CWR22Rv1: 0.11 ± 0.02; AR DC50 (μM) VCaP: 0.851 ± 0.43; AR-V7 DC50 (μM) CWR22Rv1: 0.011 ± 0.003; AR-V7 DC50 (μM) VCaP: 0.43 ± 0.19; AR Dmax (%) LNCaP: 99; AR Dmax (%) CWR22Rv1: 74; AR Dmax (%) VCaP: 94; AR-V7 Dmax (%) CWR22Rv1: 91; AR-V7 Dmax (%) VCaP: 82

[1] = CWR22Rv1 cells, read-out: AR-V7 DC50 CWR22Rv1
[2] = CWR22Rv1 cells, read-out: AR-V7 Dmax CWR22Rv1
[3] = VCaP cells, read-out: AR-V7 DC50 VCaP
[4] = VCaP cells, read-out: AR-V7 Dmax VCaP

| SMILES | DC50 [1] [nM] | Dmax at 20 µM [2] [%] | DC50 [3] [nM] | Dmax at 20 µM [4] [%] |
| --- | --- | --- | --- | --- |
| Cc1ncsc1-c1ccc(CNC(=O)[C@@H]2C[C@H](O)CN2C(=O)[C@@H](NC(=O)COCCCCOc2ccc(C3CCN(C4=Nn5c(nnc5C(F)(F)F)CC4)CC3)cc2)C(C)(C)C)cc1 [ITRI-90, (2S,4S)-1-((S)-3,3-dimethyl-2-(2-(4-(4-(1-(3-(trifluoromethyl)-7,8-dihydro-[1,2,4]triazolo[4,3-b]pyridazin-6-yl)piperidin-4-yl)phenoxy)butoxy)acetamido)butanoyl)-4-hydroxy-N-(4-(4-methylthiazol-5-yl)benzyl)pyrrolidine-2-carboxamide] | 4720 ± 2520 | 100 | 290 ± 150 | 63 |
| Cc1ncsc1-c1ccc(CNC(=O)[C@@H]2C[C@H](O)CN2C(=O)[C@@H](NC(=O)COCCCCCCOc2ccc(C3CCN(C4=Nn5c(nnc5C(F)(F)F)CC4)CC3)cc2)C(C)(C)C)cc1 [ITRI-125, (2S,4S)-1-((S)-3,3-dimethyl-2-(2-(6-(4-(1-(3-(trifluoromethyl)-7,8-dihydro-[1,2,4]triazolo[4,3-b]pyridazin-6-yl)piperidin-4-yl)phenoxy)hexyloxy)acetamido)butanoyl)-4-hydroxy-N-(4-(4-methylthiazol-5-yl)benzyl)pyrrolidine-2-carboxamide] | 1890 ± 1060 | 99 | 520 ± 370 | 67 |
| O=C1CCC(N2Cc3c(NC(=O)COCCCCOc4ccc(C5CCN(C6=Nn7c(nnc7C(F)(F)F)CC6)CC5)cc4)cccc3C2=O)C(=O)N1 (stereo not drawn) [ITRI-126, N-(2-(2,6-dioxopiperidin-3-yl)-1-oxoisoindolin-4-yl)-2-(4-(4-(1-(3-(trifluoromethyl)-7,8-dihydro-[1,2,4]triazolo[4,3-b]pyridazin-6-yl)piperidin-4-yl)phenoxy)butoxy)acetamide] | 11 ± 3 | 91 | 430 ± 190 | 82 |
